Experimental data published in PubChem BioAssay AID256 (DTP/NCI, 2004).
Several values for one entry are separate records, joined by “and”; a condition that tells them apart may be missing. Equal values may be shown once. Inconclusive results and toxic doses are left out. The calls were made as follows: active = survival T/C of 150% or more; inactive = T/C below 125% in these data.

System: CD2F1 mice, L1210 leukemia ip, survival T/C
Experiment: NCI In Vivo Anticancer Drug Screen. Data for tumor model L1210 Leukemia (intraperitoneal) in CD2F1 (CDF1) mice
Details: higher = longer survival
Outline: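 Ratio T/C, where T is the treated-group value and C the vehicle-dosed control value, from mice implanted with a transplantable tumor.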

[1] = endpoint: mean survival time, dose: 100.0 mg/kg/injection, schedule: Q01DX001 (ip), vehicle: saline
[2] = endpoint: mean survival time, dose: 200.0 mg/kg/injection, schedule: Q01DX001 (ip), vehicle: saline
[3] = endpoint: mean survival time, dose: 400.0 mg/kg/injection, schedule: Q01DX001 (ip), vehicle: saline
[4] = endpoint: mean survival time, dose: 100.0 mg/kg/injection, schedule: Q01DX009 (ip), vehicle: saline with Tween-80
[5] = endpoint: mean survival time, dose: 200.0 mg/kg/injection, schedule: Q01DX009 (ip), vehicle: saline with Tween-80
[6] = endpoint: mean survival time, dose: 100.0 mg/kg/injection, schedule: Q04DX003 (ip), vehicle: saline with Tween-80
[7] = endpoint: mean survival time, dose: 200.0 mg/kg/injection, schedule: Q04DX003 (ip), vehicle: saline with Tween-80
[8] = endpoint: mean survival time, dose: 400.0 mg/kg/injection, schedule: Q01DX009 (ip), vehicle: saline with Tween-80
[9] = endpoint: mean survival time, dose: 400.0 mg/kg/injection, schedule: Q04DX003 (ip), vehicle: saline with Tween-80
[10] = endpoint: mean survival time, dose: 100.0 mg/kg/injection, schedule: Q01DX001 (ip), vehicle: saline with Tween-80
[11] = endpoint: mean survival time, dose: 200.0 mg/kg/injection, schedule: Q01DX001 (ip), vehicle: saline with Tween-80
[12] = endpoint: mean survival time, dose: 400.0 mg/kg/injection, schedule: Q01DX001 (ip), vehicle: saline with Tween-80

Measured: T/C

CS(=O)(=O)OCCN(CCOS(C)(=O)=O)c1ccc([N+](=O)[O-])cc1
inactive: endpoint: mean survival time, dose: 12.5 mg/kg/injection, schedule: Q01DX010 (ip), vehicle: saline 100 % of control | endpoint: mean survival time, dose: 25.0 mg/kg/injection, schedule: Q01DX010 (ip), vehicle: saline 100 % of control | endpoint: mean survival time, dose: 50.0 mg/kg/injection, schedule: Q01DX010 (ip), vehicle: saline 115 % of control | endpoint: mean survival time, dose: 100.0 mg/kg/injection, schedule: Q01DX010 (ip), vehicle: saline 106 % of control

CC(=O)OC1COCOC1C1OCOCC1OC(C)=O (centres undefined)
inactive: endpoint: mean survival time, dose: 50.0 mg/kg/injection, schedule: Q01DX009 (ip), vehicle: Klucel (hydroxypropylcellulose) (HPC) 102 % of control | endpoint: mean survival time, dose: 100.0 mg/kg/injection, schedule: Q01DX009 (ip), vehicle: Klucel (hydroxypropylcellulose) (HPC) 102 % of control | endpoint: mean survival time, dose: 200.0 mg/kg/injection, schedule: Q01DX009 (ip), vehicle: Klucel (hydroxypropylcellulose) (HPC) 110 % of control

CCCCCCCCCCCOc1ccc(Cl)cc1Cl
inactive: endpoint: mean survival time, dose: 100.0 mg/kg/injection, schedule: Q04DX002 (ip), vehicle: saline with Tween-80 90 % of control | endpoint: mean survival time, dose: 200.0 mg/kg/injection, schedule: Q04DX002 (ip), vehicle: saline with Tween-80 93 % of control | endpoint: mean survival time, dose: 400.0 mg/kg/injection, schedule: Q04DX002 (ip), vehicle: saline with Tween-80 86 % of control

S=C(NCCCCCNC(=S)Nc1ccccc1)Nc1ccccc1
inactive: endpoint: mean survival time, dose: 100.0 mg/kg/injection, schedule: Q04DX003 (ip), vehicle: acetone 96 % of control | endpoint: mean survival time, dose: 200.0 mg/kg/injection, schedule: Q04DX003 (ip), vehicle: acetone 108 % of control

ONC(CC(O)(NO)NO)c1ccccc1 (centres undefined)
inactive: [1] 107 % of control | [2] 107 % of control | [3] 108 % of control

O=C1C=CC(=O)c2c(O)cccc21
inactive: endpoint: mean survival time, dose: 3.13 mg/kg/injection, schedule: Q01DX009 (ip), vehicle: saline with Tween-80 94 % of control | endpoint: mean survival time, dose: 6.25 mg/kg/injection, schedule: Q01DX009 (ip), vehicle: saline with Tween-80 92 % of control | endpoint: mean survival time, dose: 12.5 mg/kg/injection, schedule: Q04DX003 (ip), vehicle: saline with Tween-80 88 % of control

CCCC[N+](CCCC)(CCCC)Cc1ccccc1
inactive: endpoint: mean survival time, dose: 1.5 mg/kg/injection, schedule: Q04DX003 (ip), vehicle: saline 100 % of control | endpoint: mean survival time, dose: 3.0 mg/kg/injection, schedule: Q04DX003 (ip), vehicle: saline 97 % of control | endpoint: mean survival time, dose: 6.0 mg/kg/injection, schedule: Q04DX003 (ip), vehicle: saline 94 % of control

[C-]#[O+].[C-]#[O+].[C-]#[O+].[C-]#[O+].[C-]#[O+].[Cr].c1ccc(O[PH+](Oc2ccccc2)Oc2ccccc2)cc1
inactive: endpoint: mean survival time, dose: 50.0 mg/kg/injection, schedule: Q01DX009 (ip), vehicle: saline with Tween-80 96 % of control | [4] 96 % of control | [5] 91 % of control

C/C=C1/CN2[C@H]3C[C@@]45c6ccccc6N[C@@H]4[C@@H]2C[C@H]1[C@@]3(C(=O)OC)[C@H]5O
inactive: [4] 91 % of control | [6] 95 % of control | [5] 95 % of control | [7] 100 % of control | [8] 91 % of control | [9] 103 % of control

Cc1c(NC(=O)Nc2cc([N+](=O)[O-])ccc2Cl)c(=O)n(-c2ccccc2)n1C
inactive: [1] 96 % of control | [4] 89 % of control and 98 % of control | endpoint: mean survival time, dose: 100.0 mg/kg/injection, schedule: Q04DX002 (ip), vehicle: saline 93 % of control and 107 % of control | [6] 104 % of control | [2] 86 % of control | [5] 96 % of control and 102 % of control | endpoint: mean survival time, dose: 200.0 mg/kg/injection, schedule: Q04DX002 (ip), vehicle: saline 95 % of control and 96 % of control | [7] 104 % of control | [3] 86 % of control | [8] 96 % of control | endpoint: mean survival time, dose: 400.0 mg/kg/injection, schedule: Q04DX002 (ip), vehicle: saline 91 % of control and 107 % of control | [9] 95 % of control

CNCCc1ccc(O)c(O)c1
inactive: endpoint: mean survival time, dose: 300.0 mg/kg/injection, schedule: Q01DX001 (ip), vehicle: saline 100 % of control

CS(=O)(=O)OC1C(OC(=O)OCc2ccccc2)C2COC(O2)C1OC(=O)OCc1ccccc1 (centres undefined)
inactive: [4] 92 % of control | [5] 92 % of control | [8] 89 % of control

Cc1ccc(C(=O)NC2C(=O)NC(C(C)C)C(=O)N3CCCC3C(=O)N(C)CC(=O)N(C)C(C(C)C)C(=O)OC2C)c2c1Oc1c(c(C(=O)NC3C(=O)NC(C(C)C)C(=O)N4CCCC4C(=O)N(C)CC(=O)N(C)C(C(C)C)C(=O)OC3C)c3nc(-c4ccccc4)c(=O)oc3c1C)N2 (centres undefined)
inactive: endpoint: median survival time, dose: 0.06 mg/kg/injection, schedule: Q01DX009 (ip), vehicle: water 112 % of control | endpoint: median survival time, dose: 0.12 mg/kg/injection, schedule: Q01DX009 (ip), vehicle: water 122 % of control | endpoint: median survival time, dose: 0.25 mg/kg/injection, schedule: Q01DX009 (ip), vehicle: water 117 % of control

O=C1C(=O)c2cccc3cccc1c23
inactive: [10] 100 % of control | [11] 92 % of control | [12] 97 % of control

O=C1c2cccc3c2C2(O)c4c1cccc4C(=O)c1cccc(c12)C3=O
inactive: endpoint: mean survival time, dose: 132.0 mg/kg/injection, schedule: Q01DX009 (ip), vehicle: saline with Tween-80 104 % of control | [5] 121 % of control

C/C=C(/c1ccccc1)c1ccc(N(C)C)cc1
inactive: [6] 98 % of control | [7] 91 % of control | [9] 91 % of control

O=C(O)C(/C=C/c1ccccc1)c1ccccc1 (centres undefined)
inactive: [10] 112 % of control | [4] 101 % of control | [6] 92 % of control | [11] 95 % of control | [7] 91 % of control | [12] 88 % of control | [8] 103 % of control | [9] 91 % of control

CCCCCCCCC(=O)N1CCCCC1
inactive: endpoint: mean survival time, dose: 100.0 mg/kg/injection, schedule: Q04DX003 (ip), vehicle: saline 101 % of control | endpoint: mean survival time, dose: 200.0 mg/kg/injection, schedule: Q04DX003 (ip), vehicle: saline 102 % of control | endpoint: mean survival time, dose: 400.0 mg/kg/injection, schedule: Q04DX003 (ip), vehicle: saline 96 % of control

CC(C)(C)c1ccc(O)c(Sc2cc(C(C)(C)C)ccc2O)c1
inactive: endpoint: mean survival time, dose: 50.0 mg/kg/injection, schedule: Q01DX009 (ip), vehicle: other 96 % of control | endpoint: mean survival time, dose: 100.0 mg/kg/injection, schedule: Q01DX009 (ip), vehicle: other 98 % of control | [4] 98 % of control | endpoint: mean survival time, dose: 200.0 mg/kg/injection, schedule: Q01DX009 (ip), vehicle: other 101 % of control | [5] 103 % of control | [8] 94 % of control

COC(=O)c1cccc2c1ccc1ccccc12
inactive: endpoint: mean survival time, dose: 75.0 mg/kg/injection, schedule: Q01DX001 (ip), vehicle: saline 91 % of control | endpoint: mean survival time, dose: 150.0 mg/kg/injection, schedule: Q01DX001 (ip), vehicle: saline 95 % of control

CCC(=O)OCCNc1ccc([N+](=O)[O-])cc1[N+](=O)[O-]
inactive: endpoint: mean survival time, dose: 100.0 mg/kg/injection, schedule: Q04DX002 (ip), vehicle: other 106 % of control | endpoint: mean survival time, dose: 200.0 mg/kg/injection, schedule: Q04DX002 (ip), vehicle: other 109 % of control | endpoint: mean survival time, dose: 400.0 mg/kg/injection, schedule: Q04DX002 (ip), vehicle: other 91 % of control

NC(=O)c1csc(COC(CO)CO)n1
inactive: endpoint: median survival time, dose: 15.38 mg/kg/injection, schedule: Q01DX009 (ip), vehicle: water 93 % of control | endpoint: median survival time, dose: 30.75 mg/kg/injection, schedule: Q01DX009 (ip), vehicle: water 97 % of control | endpoint: median survival time, dose: 61.5 mg/kg/injection, schedule: Q01DX009 (ip), vehicle: water 101 % of control | endpoint: median survival time, dose: 123.0 mg/kg/injection, schedule: Q01DX009 (ip), vehicle: water 100 % of control

COC(=O)NS(=O)(=O)Nc1ccccc1
inactive: [4] 93 % of control | [5] 93 % of control | [8] 87 % of control

O=[N+]([O-])c1ccc(/C=C/C=C/c2ccc(Cl)cc2Cl)cc1
inactive: [6] 97 % of control | [7] 104 % of control | [9] 98 % of control
